The numbers were not newly measured in patent US20080255097A1, “Methods for the Treatment of Substance Abuse and Dependence” (priority 2005, published 2008), which cites them from elsewhere.

Experiment in data set [1]: not given
The source holds these as a separate data set.

For data set [2] the following is noted: overdose.
Data set [3] deals with GABAA receptor α4 subunit mRNA. Conditions: withdrawal after long-term exposure.
Data set [4] relates to GABAA receptor α4 subunit mRNA. Conditions: exposure at the time of ethanol withdrawal.
Another data set relates to GABAA receptors. Conditions: 10 μM diazepam substituted for ethanol.
The test system of data set [5] is allopregnanolone. Conditions: in vivo.
For data set [6], the system named is allopregnanolone. Conditions: in vivo. The source holds these as a separate data set.

`N[C@@H]1C[C@H]1c1ccccc1` (racemic) [TRANYLCYPROMINE]: the “time in which the drug is excreted” value (after withdrawal) was 24 h.

For the molecule `C[C@]12C=CC(=O)N[C@@H]1CC[C@@H]1[C@@H]2CC[C@]2(C)[C@@H](C(=O)Nc3cc(C(F)(F)F)ccc3C(F)(F)F)CC[C@@H]12` [Dutasteride, (5α,17β)-N-{2,5 bis(trifluoromethyl)phenyl}-3-oxo-4-azaandrost-1-ene-17-carboxamide], in data set [1] (clinical study, daily doses of 5 mg, 60 subjects, 6 months), the “adverse effects compared with therapeutic dose of 0.5 mg” value was “subjects for 6 months with no additional adverse effects to those”. Besides, in data set [1] (volunteer studies, single doses up to 40 mg (80 times the therapeutic dose) for 7 days), the safety result is “without significant safety concerns. In a clinical study, daily doses”.

As for `NCC1(CC(=O)O)CCCCC1` [Gabapentin], for the setting “in vivo”, the half-life was 5 to 7 h and the metabolism result is given as “not appreciably metabolized”. With `CCCC(C)(COC(N)=O)COC(N)=O` [MEPROBROMATE], in data set [2], the “highest ingested amount with survival” value is recorded as “much as 40 g”. On to `C=CCN1CC[C@]23c4c5ccc(O)c4O[C@H]2C(=O)CC[C@@]3(O)[C@H]1C5` [Naloxone, 17-allyl-4,5α-epoxy-3,14-dihydroxymorphinan-6-one], for which the half-life (in vivo) is 1 to 1.67 h. Take `CN1C(=O)CN=C(c2ccccc2)c2cc(Cl)ccc21` [diazepam]: the “amount of α4 subunit mRNA on withdrawal of the drug” value (“amount of α4 subunit mRNA” for short) in data set [3] is “marked increase”. Besides, the “effect on ethanol withdrawal-induced increase in abundance of α4 subunit mRNA” value in data set [4] was “antagonizes”. Moreover, in the data set with GABAA receptors, the “effect on positive modulation of 3 μM flumazenil induced by ethanol withdrawal” value is “negated”.

On to `CNCCC(Oc1ccc(C(F)(F)F)cc1)c1ccccc1` (stereo not drawn) [fluoxetine], for which the “brain and cerebrospinal fluid content of allopregnanolone” value in the data set with allopregnanolone [5] was “increase”.

For the molecule `CN1CCC[C@H]1c1cccnc1` [nicotine], the “cerebrocortical concentrations of allopregnanolone and its precursors” value in the data set on allopregnanolone [6] is listed as “increase”. Besides, the half-life entry (in vivo) is recorded as “about 60 minutes”. As for `CCN(C(C)=O)c1cccc(-c2ccnc3c(C#N)cnn23)c1` [zalpelon], the “amount of α4 subunit mRNA” value in data set [3] was “marked increase”.

In the case of `Cc1ccc(-c2nc3ccc(C)cn3c2CC(=O)N(C)C)cc1` [zolpidem], the “amount of α4 subunit mRNA” value in data set [3] was “marked increase”.

The term half-life denotes the time in which the quantity being followed falls by half.
